{
  "source": "paper PMC11597202",
  "about": "“Novel Thiazole-Fused [4,5-g] or [5,4-g]Quinazolin-8-ones and Their Quinazoline Analogues: Synthesis and Biological Evaluation” (Pharmaceuticals, 2024)",
  "key": {"[1]": {"molecular_target": "T1, Pim-1 (Homo sapiens, UniProt P11309)", "T1 construct": "host or cells: bacteria", "T1 sequence (P11309 whole entry)": "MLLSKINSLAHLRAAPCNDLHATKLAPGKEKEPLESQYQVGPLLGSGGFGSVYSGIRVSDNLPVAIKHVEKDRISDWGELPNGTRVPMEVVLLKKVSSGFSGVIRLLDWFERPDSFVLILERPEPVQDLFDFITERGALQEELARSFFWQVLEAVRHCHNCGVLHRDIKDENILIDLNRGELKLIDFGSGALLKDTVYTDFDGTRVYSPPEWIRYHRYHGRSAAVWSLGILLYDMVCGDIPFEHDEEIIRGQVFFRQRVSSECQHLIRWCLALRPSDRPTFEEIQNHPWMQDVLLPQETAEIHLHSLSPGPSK", "test": "ADP-Glo kinase inhibition assay, Pim-1", "format": "biochemical", "settings": "percentage of maximum activity of the DMSO control, mean n = 2, 10 µM ATP, read-out: Residual activity Pim-1; for remaining activity at 1 µM: 1 μM compound; for remaining activity at 10 µM: 10 μM compound", "experimental": "(§1) Kinase enzymatic activities were assayed in 384-well plates using the ADP-Glo^TM assay kit (Promega, Madison, WI, USA) according to the recommendations of the manufacturer. This luminescent ADP detection assay was described by Zegzouti and co-workers and provides a homogeneous and high-throughput screening method to measure kinase activity by quantifying the amount of ADP produced during a kinase reaction. Briefly, the reactions were carried out in a final volume of 6 µL for 30 min at 30 °C in an appropriate kinase buffer (10 mM MgCl2, 1 mM EGTA, 1 mM DTT, 25 mM Tris-HCl pH 7.5, 50 µg/mL heparin), with peptide or protein as substrate in the presence of 10 µM ATP. Peptide substrates were obtained from ProteoGenix (Schiltigheim, France) or Sigma for Histone H1, Poly (L-glutamic acid–L-tyrosine) sodium salt, Casein and MBP. After that, 6 µL of ADP-Glo^TM Kinase Reagent was added to stop the kinase reaction. After an incubation time of 50 min at room temperature (rt), 12 µL of Kinase Detection Reagent was added for one hour at rt. The transmitted signal was measured using the Envision (PerkinElmer, Waltham, MA, USA) microplate luminometer and expressed as Relative Light Units (RLUs). Kinase activities are expressed as percentages of remaining kinase activities detected after treatment with 1 or 10 µM of the tested compounds. The maximum kinase activity was measured in the absence of inhibitor but with an equivalent dose of DMSO (solvent of the tested compounds).\n(§2) 3. Kinase inhibition assays\n(§3) Kinase enzymatic activities were assayed in 384-well plates using the ADP-GloTM assay kit (Promega, Madison, WI) according to the recommendations of the manufacturer. This luminescent ADP detection assay was described by Zegzouti and co-workers and provides a homogeneous and high-throughput screening method to measure kinase activity by quantifying the amount of ADP produced during a kinase reaction. Briefly, the reactions were carried out in a final volume of 6 µl for 30 min at 30°C in appropriate kinase buffer (10 mM MgCl2, 1 mM EGTA, 1 mM DTT, 25 mM Tris-HCl pH 7.5, 50 µg/mL heparin), with peptide or protein as substrate in the presence of 10 µM ATP. Peptide substrates were obtained from ProteoGenix (Schiltigheim, France) or Sigma for Histone H1, Poly (L-glutamic acid – L-tyrosine) sodium salt, Casein and MBP. After that, 6 µL of ADP-GloTM Kinase Reagent was added to stop the kinase reaction. After an incubation time of 50 min at room temperature (rt), 12 µL of Kinase Detection Reagent was added for 1 h at rt. The transmitted signal was measured using the Envision (PerkinElmer, Waltham, MA) microplate luminometer and expressed in Relative Light Unit (RLU). Kinase activities are expressed in percentages of remaining kinase activities detected after treatment with 1 or 10 µM of the tested compounds. The maximal kinase activity is measured in the absence of inhibitor but with an equivalent dose of DMSO (solvent of the tested compounds).\n(§4) Table. Human protein kinases tested in the panel: CDK9, HASPIN, PIM1, GSK3b, CK1ε, JAK3, CLK1 […]\n(§5) Protein Kinase Enzyme Description Substrate1\n(§6) (Family) (Working concentration)\n(§7) CDK9/CyclinT Human, recombinant, expressed by Peptide:\n(§8) (CMGC) baculovirus in Sf9 insect cells […]\n(§9) CLK1 Human, recombinant, expressed by Peptide: […]\n(§10) (CMGC) baculovirus in Sf9 insect cells (57.3µM)\n(§11) DYRK1A Human, recombinant, expressed by Peptide: […]\n(§12) (CMGC) baculovirus in Sf9 insect cells (10.7µM)\n(§13) PIM1 Human proto-oncogene, recombinant, Peptide: […]\n(§14) (CAMK) expressed in bacteria (630 µM)\n(§15) GSK3 Human, recombinant, expressed by Peptide:\n(§16) (CMGC) baculovirus in Sf9 insect cells […]pEDEEE 3\n(§17) HASPIN Human, kinase domain, amino acids 470 to Histone H3 peptide (1-21):\n(§18) (Other) 798, recombinant, expressed in bacteria […] (8µM)\n(§19) CK1ε Human, recombinant, expressed by Peptide: […]pAYSITA 2\n(§20) (CK1) baculovirus in Sf9 insect cells (170µM)\n(§21) JAK3 Human, recombinant, expressed by Peptide: […]\n(§22) (TK) baculovirus in Sf9 insect cells (94µM) […]"}, "[2]": {"molecular_target": "T2, JAK3 (Homo sapiens, UniProt P52333)", "T2 construct": "host or cells: Sf9 insect cells (baculovirus)", "T2 sequence (P52333 1-1124)": "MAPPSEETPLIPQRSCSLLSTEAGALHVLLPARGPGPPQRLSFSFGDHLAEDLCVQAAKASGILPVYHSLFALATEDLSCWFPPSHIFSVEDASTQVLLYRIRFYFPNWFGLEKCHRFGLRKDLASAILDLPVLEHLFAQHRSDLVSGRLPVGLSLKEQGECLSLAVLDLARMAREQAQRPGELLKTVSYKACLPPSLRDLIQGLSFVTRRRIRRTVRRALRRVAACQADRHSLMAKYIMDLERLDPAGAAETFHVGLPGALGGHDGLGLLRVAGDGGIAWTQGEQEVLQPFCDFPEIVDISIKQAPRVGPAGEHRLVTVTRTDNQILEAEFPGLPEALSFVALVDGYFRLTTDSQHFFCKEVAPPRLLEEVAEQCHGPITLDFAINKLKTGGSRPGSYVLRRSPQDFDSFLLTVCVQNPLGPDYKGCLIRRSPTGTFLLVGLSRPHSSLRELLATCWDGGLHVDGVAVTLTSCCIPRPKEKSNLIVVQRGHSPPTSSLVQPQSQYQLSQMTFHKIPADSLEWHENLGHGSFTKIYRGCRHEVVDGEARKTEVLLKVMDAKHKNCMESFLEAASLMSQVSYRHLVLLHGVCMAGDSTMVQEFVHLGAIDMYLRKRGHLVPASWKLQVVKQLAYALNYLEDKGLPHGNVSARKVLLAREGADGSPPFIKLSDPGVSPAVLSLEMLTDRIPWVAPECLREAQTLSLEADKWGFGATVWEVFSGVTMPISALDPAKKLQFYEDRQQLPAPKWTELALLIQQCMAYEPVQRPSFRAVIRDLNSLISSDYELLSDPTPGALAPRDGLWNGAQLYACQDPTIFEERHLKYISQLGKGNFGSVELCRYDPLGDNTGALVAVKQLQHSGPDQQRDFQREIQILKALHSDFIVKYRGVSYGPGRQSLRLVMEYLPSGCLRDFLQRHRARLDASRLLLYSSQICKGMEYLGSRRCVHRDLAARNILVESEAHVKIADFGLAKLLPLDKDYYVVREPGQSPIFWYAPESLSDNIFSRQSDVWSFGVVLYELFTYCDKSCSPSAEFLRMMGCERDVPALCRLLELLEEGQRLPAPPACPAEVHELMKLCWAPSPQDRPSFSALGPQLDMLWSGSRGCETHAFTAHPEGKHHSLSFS", "test": "ADP-Glo kinase inhibition assay, JAK3", "format": "biochemical", "settings": "for remaining activity at 1 µM: 1 μM compound; for remaining activity at 1 µM / remaining activity at 10 µM: percentage of maximum activity of the DMSO control, mean n = 2, 10 µM ATP, read-out: Residual activity JAK3; for remaining activity at 10 µM: 10 μM compound; for Inhibition of JAK3 kinase activity: span over the tested concentrations (1 and 10 μM)", "experimental": "as §1, §2, §3, §4, §5, §6, §7, §8, §9, §10, §11, §12, §13, §14, §15, §16, §17, §18, §19, §20, §21, §22"}},
  "data": [
    {"molecule": "COC(=N)c1nc2cc3c(=O)n(Cc4ccccc4)cnc3cc2s1", "note": "[Compound 6a, Methyl 7-benzyl-8-oxo-7,8-dihydrothiazolo[4,5-g]quinazoline-2-carbimidate]", "values": [
      {"measurement": "remaining activity at 1 µM", "setting": "[1]", "result": 80, "unit": "%"},
      {"measurement": "remaining activity at 10 µM", "setting": "[1]", "result": 133, "unit": "%"},
      {"measurement": "remaining activity at 1 µM", "setting": "[2]", "result": 55, "unit": "%"},
      {"measurement": "remaining activity at 10 µM", "setting": "[2]", "result": 36, "unit": "%"}
    ]},
    {"molecule": "COC(=N)c1nc2cc3ncn(Cc4ccccc4)c(=O)c3cc2s1", "note": "[Compound 6b, Methyl 7-benzyl-8-oxo-7,8-dihydrothiazolo[5,4-g]quinazoline-2-carbimidate]", "values": [
      {"measurement": "remaining activity at 1 µM", "setting": "[1]", "result": 90, "unit": "%"},
      {"measurement": "remaining activity at 10 µM", "setting": "[1]", "result": 78, "unit": "%"},
      {"measurement": "remaining activity at 1 µM", "setting": "[2]", "result": 92, "unit": "%"},
      {"measurement": "remaining activity at 10 µM", "setting": "[2]", "result": 73, "unit": "%"}
    ]},
    {"molecule": "COC(=N)c1nc2c(ccc3c(=O)n(Cc4ccccc4)cnc32)s1", "note": "[Compound 6c, Methyl 7-benzyl-6-oxo-6,7-dihydrothiazolo[5,4-h]quinazoline-2-carbimidate]", "values": [
      {"measurement": "remaining activity at 1 µM", "setting": "[1]", "result": 74, "unit": "%"},
      {"measurement": "remaining activity at 10 µM", "setting": "[1]", "result": 86, "unit": "%"},
      {"measurement": "remaining activity at 1 µM", "setting": "[2]", "result": 59, "unit": "%"},
      {"measurement": "remaining activity at 10 µM", "setting": "[2]", "result": 44, "unit": "%"}
    ]},
    {"molecule": "COC(=N)c1nc2ccc3c(=O)n(Cc4ccccc4)cnc3c2s1", "note": "[Compound 6d, Methyl 7-benzyl-6-oxo-6,7-dihydrothiazolo[4,5-h]quinazoline-2-carbimidate]", "values": [
      {"measurement": "remaining activity at 1 µM", "setting": "[1]", "result": 92, "unit": "%"},
      {"measurement": "remaining activity at 10 µM", "setting": "[1]", "result": 94, "unit": "%"},
      {"measurement": "remaining activity at 1 µM", "setting": "[2]", "result": 80, "unit": "%"},
      {"measurement": "remaining activity at 10 µM", "setting": "[2]", "result": 92, "unit": "%"}
    ]},
    {"molecule": "COC(=N)c1nc2cc3c(Nc4ccc(OC)cc4F)ncnc3cc2s1", "note": "[Compound 15a, Methyl 8-[(2-fluoro-4-methoxyphenyl)amino]thiazolo[4,5-g]quinazoline-2-carbimidate]", "values": [
      {"measurement": "remaining activity at 1 µM", "setting": "[1]", "result": 71, "unit": "%"},
      {"measurement": "remaining activity at 10 µM", "setting": "[1]", "result": 113, "unit": "%"},
      {"measurement": "remaining activity at 1 µM", "setting": "[2]", "result": 64, "unit": "%"},
      {"measurement": "remaining activity at 10 µM", "setting": "[2]", "result": 58, "unit": "%"},
      {"measurement": "Inhibition of JAK3 kinase activity", "setting": "[2]", "result": "around 38%"}
    ]},
    {"molecule": "COC(=N)c1nc2cc3ncnc(Nc4ccc(OC)cc4F)c3cc2s1", "note": "[Compound 15b, Methyl 8-[(2-fluoro-4-methoxyphenyl)amino]thiazolo[5,4-g]quinazoline-2-carbimidate]", "values": [
      {"measurement": "remaining activity at 1 µM", "setting": "[1]", "result": 74, "unit": "%"},
      {"measurement": "remaining activity at 10 µM", "setting": "[1]", "result": 105, "unit": "%"},
      {"measurement": "remaining activity at 1 µM", "setting": "[2]", "result": 68, "unit": "%"},
      {"measurement": "remaining activity at 10 µM", "setting": "[2]", "result": 60, "unit": "%"},
      {"measurement": "Inhibition of JAK3 kinase activity", "setting": "[2]", "result": "around 38%"}
    ]},
    {"molecule": "COC(=N)c1nc2ccc3ncn(Cc4ccccc4)c(=O)c3c2s1", "note": "[Compound I, methyl 8-benzyl-9-oxo-8,9-dihydrothiazolo[5,4-f]quinazoline-2-carbimidate, reference compound]", "values": [
      {"measurement": "remaining activity at 1 µM", "setting": "[1]", "result": 79, "unit": "%"},
      {"measurement": "remaining activity at 10 µM", "setting": "[1]", "result": 77, "unit": "%"},
      {"measurement": "remaining activity at 1 µM", "setting": "[2]", "result": 48, "unit": "%"},
      {"measurement": "remaining activity at 10 µM", "setting": "[2]", "result": 52, "unit": "%"}
    ]},
    {"molecule": "COC(=N)c1nc2ccc3ncnc(Nc4ccc(OC)cc4F)c3c2s1", "note": "[Compound II, methyl 9-[(2-fluoro-4-methoxyphenyl)amino]thiazolo[5,4-f]quinazoline-2-carbimidate, reference compound]", "values": [
      {"measurement": "remaining activity at 1 µM", "setting": "[1]", "result": 52, "unit": "%"},
      {"measurement": "remaining activity at 10 µM", "setting": "[1]", "result": 32, "unit": "%"},
      {"measurement": "remaining activity at 1 µM", "setting": "[2]", "result": 69, "unit": "%"},
      {"measurement": "remaining activity at 10 µM", "setting": "[2]", "result": 54, "unit": "%"}
    ]}
  ]
}
